# Calls of active or inactive are those of the source. The rule behind the calls is not given here.
# Columns and labels:
# [1] = Toxicity in ICR mouse assessed as body weight loss at 500 to 5000 mg/kg, po administered via gavage for 2 weeks; format: organism-based; conditions: in vivo, 336 h, dose 500-5000 mg/kg
# MC38-hPD-L1 [2] = assay: Antitumor activity against humanized mouse MC38-hPD-L1 cells implanted in hPD-1 knockin C57BL/6 mouse assessed as reduction in M2 macrophages at 10 to 25 mg/kg, ip administered for 12 days starting from day 7 post tumor implantation by flow cytometry analysis; format: functional, organism-based; conditions: dose 10-25 mg/kg, time 12.0 day
# MC38-hPD-L1 [3] = assay: Antitumor activity against humanized mouse MC38-hPD-L1 cells implanted in hPD-1 knockin C57BL/6 mouse assessed as increase in M1 macrophages at 10 to 25 mg/kg, ip administered for 12 days starting from day 7 post tumor implantation by flow cytometry analysis; format: functional, organism-based; conditions: dose 10-25 mg/kg, time 12.0 day
# MC38-hPD-L1 [4] = assay: Antitumor activity against humanized mouse MC38-hPD-L1 cells implanted in hPD-1 knockin C57BL/6 mouse assessed as tumor growth inhibition at 25 mg/kg, ip administered for 12 days starting from day 7 post tumor implantation and measured every 2 days relative to control; format: functional; conditions: MC38-hPD-L1, 288 h, time 12 day, read-out: TGI
# [5] = target: Programmed cell death protein 1/Programmed cell death 1 ligand 1 (Homo sapiens, UniProt Q9NZQ7); assay: Inhibition of europium-labeled PD-1/biotinylated PD-L1 interaction (unknown origin) preincubated for 15 mins with PD-L1 followed by PD-1 addition and measured after 90 mins by TR-FRET assay; format: protein-complex assay
# NCI-H460 = assay: Cytotoxicity against human NCI-H460 cells cocultured with human PBMC cells assessed as increase in clearance of tumor cells at 100 to 200 nM preincubated for 30 mins followed by NCI-H460 cells addition and further coincubated for 24 hrs with human PBMC cells by cell impedence assay; format: functional, cell-based; conditions: dose 100-200 nM, time 24.5 hrs
# MC38-hPD-L1 [6] = assay: Antitumor activity against humanized mouse MC38-hPD-L1 cells implanted in hPD-1 knockin C57BL/6 mouse assessed as increase in tumor cell apoptosis by measuring increase in cleaved caspase-3 level at 10 to 25 mg/kg, ip administered for 12 days starting from day 7 post tumor implantation by immunohistochemistry analysis; format: functional, organism-based; conditions: dose 10-25 mg/kg, time 12.0 day
# [7] = target: T1, Programmed cell death protein 1/Programmed cell death 1 ligand 1 (Homo sapiens) (UniProt Q15116+Q9NZQ7); assay: Inhibition of PD-1/PD-L1 interaction in human A549 cells harboring low level PD-L1 expression assessed as increase in transcriptional-mediated bioluminescent signal preincubated with compound followed by washout and further cultured with Jurkat cells transfected with NFAT luciferase by bio-glo reagent based assay; format: cell-based; conditions: dose 50-200 nM
# [8] = Half life in ICR mouse at 5 mg/kg, iv; format: ADME, organism-based; conditions: in vivo
# LLC-hPD-L1 [9] = assay: Antitumor activity against humanized mouse LLC-hPD-L1 cells implanted in hPD-1 knockin C57BL/6 mouse assessed as increase in M1 macrophages at 10 to 25 mg/kg, ip administered for 12 days starting from day 7 post tumor implantation by flow cytometry analysis; format: functional, organism-based; conditions: dose 10-25 mg/kg, time 12.0 day
# MC38-hPD-L1 [10] = assay: Antitumor activity against humanized mouse MC38-hPD-L1 cells implanted in hPD-1 knockin C57BL/6 mouse assessed as increase in GzmB level at 10 to 25 mg/kg, ip administered for 12 days starting from day 7 post tumor implantation by flow cytometry analysis; format: functional, organism-based; conditions: dose 10-25 mg/kg, time 12.0 day
# LLC-hPD-L1 [11] = assay: Antitumor activity against humanized mouse LLC-hPD-L1 cells implanted in hPD-1 knockin C57BL/6 mouse assessed as increase in tumor cell apoptosis by measuring increase in cleaved caspase-3 level administered intraperitoneally for 12 days starting from day 7 post tumor implantation by immunohistochemistry analysis; format: functional, cell-based; conditions: dose 10-25 mg/kg, route ip, time 12.0 day
# LLC-hPD-L1 [12] = assay: Antitumor activity against humanized mouse LLC-hPD-L1 cells implanted in hPD-1 knockin C57BL/6 mouse assessed as increase in GzmB level at 10 to 25 mg/kg, ip administered for 12 days starting from day 7 post tumor implantation by flow cytometry analysis; format: functional, organism-based; conditions: dose 10-25 mg/kg, time 12.0 day
# [13] = target: T2, Programmed cell death 1 ligand 1 (Homo sapiens, UniProt Q9NZQ7); assay: Inhibition of PD-1 Fc IgG fusion protein binding to PD-L1 in human NCI-H460 cells incubated for 6 hrs by DAPI/PD-1 anti-human IgG DyLight 488 staining based fluorescence microscopy; format: cell-based
# MC38-hPD-L1 [14] = assay: Antitumor activity against humanized mouse MC38-hPD-L1 cells implanted in hPD-1 knockin C57BL/6 mouse assessed as macrophage polarization into M1 phenotype at 25 mg/kg, ip administered for 12 days starting from day 7 post tumor implantation by flow cytometry analysis; format: functional, organism-based; conditions: time 12.0 day
# [15] = Toxicity in hPD-1 knockin C57BL/6 mouse implanted with humanized mouse MC38-hPD-L1 cells assessed as reduction in body weight at 10 to 25 mg/kg, ip administered for 12 days starting from day 7 post tumor implantation and measured every 3 to 4 days; format: organism-based; conditions: in vivo, 288 h, dose 10-25 mg/kg, time 12 day
# LLC-hPD-L1 [16] = assay: Antitumor activity against humanized mouse LLC-hPD-L1 cells implanted in hPD-1 knockin C57BL/6 mouse assessed as reduction in M2 macrophages at 10 to 25 mg/kg, ip administered for 12 days starting from day 7 post tumor implantation by flow cytometry analysis; format: functional, organism-based; conditions: dose 10-25 mg/kg, time 12.0 day
# [17] = Toxicity in ICR mouse assessed as reduction in liver weight at 500 to 5000 mg/kg, po administered via gavage for 2 weeks; format: organism-based; conditions: in vivo, 336 h, dose 500-5000 mg/kg
# LLC-hPD-L1 [18] = assay: Antitumor activity against humanized mouse LLC-hPD-L1 cells implanted in hPD-1 knockin C57BL/6 mouse assessed as reduction in MDSC cells at 10 to 25 mg/kg, ip administered for 12 days starting from day 7 post tumor implantation by flow cytometry analysis; format: functional, organism-based; conditions: dose 10-25 mg/kg, time 12.0 day
# MC38-hPD-L1 [19] = assay: Antitumor activity against humanized mouse MC38-hPD-L1 cells implanted in BALB/c nude mouse assessed as reduction in tumor growth at 10 to 25 mg/kg, ip administered for 10 days starting from day 6 post tumor implantation and measured every 2 days; format: functional, organism-based; conditions: dose 10-25 mg/kg, time 10.0 day
# LLC-hPD-L1 [20] = assay: Antitumor activity against humanized mouse LLC-hPD-L1 cells implanted in hPD-1 knockin C57BL/6 mouse assessed as increase in IFN-gamma level at 10 to 25 mg/kg, ip administered for 12 days starting from day 7 post tumor implantation by flow cytometry analysis; format: functional, organism-based; conditions: dose 10-25 mg/kg, time 12.0 day
# [21] = target: T1, Programmed cell death protein 1/Programmed cell death 1 ligand 1 (Homo sapiens); assay: Inhibition of PD-1/PD-L1 interaction in human NCI-H358 cells harboring high level PD-L1 expression assessed as increase in transcriptional-mediated bioluminescent signal preincubated with compound followed by washout and further cultured with Jurkat cells transfected with NFAT luciferase by bio-glo reagent based assay; format: cell-based; conditions: dose 50-200 nM
# LLC-hPD-L1 [22] = assay: Antitumor activity against humanized mouse LLC-hPD-L1 cells implanted in hPD-1 knockin C57BL/6 mouse assessed as reduction in tumor cell proliferation by measuring reduction in Ki67 expression administered intraperitoneally for 12 days starting from day 7 post tumor implantation by immunohistochemistry analysis; format: functional, cell-based; conditions: dose 10-25 mg/kg, route ip, time 12.0 day
# LLC-hPD-L1 [23] = assay: Antitumor activity against humanized mouse LLC-hPD-L1 cells implanted in hPD-1 knockin C57BL/6 mouse assessed as reduction in Treg cells at 10 to 25 mg/kg, ip administered for 12 days starting from day 7 post tumor implantation by flow cytometry analysis; format: functional, organism-based; conditions: dose 10-25 mg/kg, time 12.0 day
# [24] = target: T2, Programmed cell death 1 ligand 1; assay: Binding affinity to human PD-L1 assessed as dissociation constant by MST analysis
# T2 sequence (Q9NZQ7 whole entry, the tested form may be a part): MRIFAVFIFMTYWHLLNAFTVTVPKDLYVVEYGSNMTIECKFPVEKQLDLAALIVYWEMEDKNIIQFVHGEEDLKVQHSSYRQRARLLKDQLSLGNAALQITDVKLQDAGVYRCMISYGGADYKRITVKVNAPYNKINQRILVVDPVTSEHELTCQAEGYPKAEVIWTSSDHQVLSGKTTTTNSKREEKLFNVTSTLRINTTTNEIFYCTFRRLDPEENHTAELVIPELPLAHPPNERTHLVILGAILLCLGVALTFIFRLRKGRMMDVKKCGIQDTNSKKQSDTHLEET
# Sequence of Programmed cell death protein 1/Programmed cell death 1 ligand 1 (Q15116 whole entry): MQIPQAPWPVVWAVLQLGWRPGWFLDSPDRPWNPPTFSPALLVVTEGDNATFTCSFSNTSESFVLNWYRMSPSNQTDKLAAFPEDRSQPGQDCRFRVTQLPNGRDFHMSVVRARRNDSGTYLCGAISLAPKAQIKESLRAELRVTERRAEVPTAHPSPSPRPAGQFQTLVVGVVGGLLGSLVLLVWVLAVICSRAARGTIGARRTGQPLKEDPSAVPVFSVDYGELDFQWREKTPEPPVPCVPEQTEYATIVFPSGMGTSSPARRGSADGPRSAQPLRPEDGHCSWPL
# Sequence of Programmed cell death protein 1/Programmed cell death 1 ligand 1 (Q9NZQ7 whole entry): as the sequence (Q9NZQ7 whole entry, the tested form may be a part) above
smiles,measurement,setting,value
COc1cc2c(cc1CN[C@@H](CO)C(=O)O)C(=O)N(c1cccc(-c3ccccc3)c1C)C2=O,Activity,[1],Non-Toxic
same,Activity,MC38-hPD-L1 [2],Active
same,Activity,MC38-hPD-L1 [3],Active
same,inhibition in vivo at 25 mg/kg,MC38-hPD-L1 [4],88.8%
same,IC50,[5],6.1 nM
same,Activity,NCI-H460,Active
same,Activity,MC38-hPD-L1 [6],Active
same,inhibition,[7],Dose-Dependent Effect
same,half-life,[8],587 min
same,Activity,LLC-hPD-L1 [9],Active
same,Activity,MC38-hPD-L1 [10],Active
same,Activity,LLC-hPD-L1 [11],Dose-Dependent Effect
same,Activity,LLC-hPD-L1 [12],Active
same,EC50,[13],121 nM
same,Activity,MC38-hPD-L1 [14],Active
same,Activity,[15],Non-Toxic
same,Activity,LLC-hPD-L1 [16],Active
same,Activity,[17],Non-Toxic
same,Activity,LLC-hPD-L1 [18],Active
same,Activity,MC38-hPD-L1 [19],inactive
same,Activity,LLC-hPD-L1 [20],Active
same,inhibition,[21],Dose-Dependent Effect
same,Activity,LLC-hPD-L1 [22],Dose-Dependent Effect
same,Activity,LLC-hPD-L1 [23],Active
same,Kd,[24],71.4 nM

# — ChEMBL document CHEMBL5316293, “Novel Small-Molecule PD-L1 Inhibitor Induces PD-L1 Internalization and Optimizes the Immune Microenvironment” (J Med Chem, 2023)
